The record followed here is patent US20230203098A1, “HUMAN TRANSFERRIN RECEPTOR BINDING PEPTIDE” (priority 2020, published 2023).

The structures appear in SMILES notation. Where a SMILES comes first, the peptide text is derived from it. Bridges are numbered along the chain shown (N, C = ends). [ ]: non-standard residue; d: D form. The star is where a group is joined. X2 = O=C(O)c1cc(C(=O)*)ccc1-c1c2ccc(=O)cc-2oc2cc(O)ccc12; PEG12 = NCCOCCOCCOCCOCCOCCOCCOCCOCCOCCOCCOCCOCCC(=O)O; NMeW = CN[C@@H](Cc1c[nH]c2ccccc12)C(=O)O Where only a bound is given, the exact number is not on record here.

transferrin receptor (hTfR), sequence (P02786 whole entry): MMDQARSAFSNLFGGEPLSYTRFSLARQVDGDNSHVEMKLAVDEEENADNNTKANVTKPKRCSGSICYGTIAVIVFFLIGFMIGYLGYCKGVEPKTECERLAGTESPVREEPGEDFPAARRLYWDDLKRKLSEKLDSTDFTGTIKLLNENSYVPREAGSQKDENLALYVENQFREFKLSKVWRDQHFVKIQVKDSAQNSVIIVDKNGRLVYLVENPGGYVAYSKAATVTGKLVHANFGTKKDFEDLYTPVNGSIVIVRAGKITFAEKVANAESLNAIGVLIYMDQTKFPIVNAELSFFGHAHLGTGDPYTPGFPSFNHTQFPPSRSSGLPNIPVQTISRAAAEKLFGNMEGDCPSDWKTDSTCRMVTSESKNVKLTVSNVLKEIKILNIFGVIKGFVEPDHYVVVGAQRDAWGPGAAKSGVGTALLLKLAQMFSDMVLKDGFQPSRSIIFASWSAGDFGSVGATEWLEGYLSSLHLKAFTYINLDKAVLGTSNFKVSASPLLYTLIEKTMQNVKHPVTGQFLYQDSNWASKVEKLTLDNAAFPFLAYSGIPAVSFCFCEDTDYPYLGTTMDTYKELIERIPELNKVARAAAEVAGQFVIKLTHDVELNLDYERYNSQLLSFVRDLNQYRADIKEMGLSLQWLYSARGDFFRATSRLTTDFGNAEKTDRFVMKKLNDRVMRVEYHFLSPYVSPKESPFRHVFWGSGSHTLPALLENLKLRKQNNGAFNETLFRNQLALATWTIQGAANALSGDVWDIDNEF

This test has as its target transferrin receptor (hTfR) (Homo sapiens, UniProt P02786). Description: Intermolecular interaction evaluation test between transferrin receptor (hTfR) and peptide by surface plasmon resonance (SPR). It counts as binding. The following applies: SPR; peptides, linker-added peptides and FITC conjugates, Patent ID 203-230; read-out: KD. In short, it runs like this: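 Receptor was Ni-captured and EDC/NHS-fixed on an NTA chip; running buffer HEPES pH 8.0 with NaCl, Tween 20, BSA and 1.0% DMSO.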
A general note: Surface plasmon resonance follows binding to a sensor surface in real time, without labels.
With `CC[C@H](C)[C@@H]1NC(=O)[C@H](Cc2ccccc2)NC(=O)[C@H](Cc2ccc(O)cc2)NC(=O)[C@H](CC(N)=O)NC(=O)[C@H](Cc2c[nH]c3ccccc23)NC(=O)[C@H](C(C)C)NC(=O)[C@H](Cc2c[nH]c3ccccc23)NC(=O)[C@H](C(C)C)NC(=O)[C@H](C)NC(=O)CSC[C@@H](C(=O)NCCOCCOCCOCCOCCOCCOCCOCCOCCOCCOCCOCCOCCC(=O)N[C@@H](CCCCNC(=O)c2ccc(-c3c4ccc(=O)cc-4oc4cc(O)ccc34)c(C(=O)O)c2)C(N)=O)NC(=O)[C@H](Cc2c[nH]cn2)NC(=O)[C@H](CCCNC(=N)N)NC(=O)[C@@H]2CCCN2C(=O)[C@H]([C@@H](C)CC)NC1=O` [compound 208] ({CH2CO}-AVWVWNYFIIPRHC[PEG12]K(X2)-NH2; thioether N-14), the Kd was in the range of 1 to 100 nM.

For `CC[C@H](C)[C@@H]1NC(=O)[C@H](Cc2ccc(O)cc2)NC(=O)[C@H](Cc2ccc(O)cc2)NC(=O)[C@H](CC(N)=O)NC(=O)[C@H](Cc2c[nH]c3ccccc23)NC(=O)[C@H](C(C)C)NC(=O)[C@H](Cc2ccccc2)NC(=O)[C@H](C(C)C)NC(=O)[C@H](C)NC(=O)CSC[C@@H](C(=O)NCCOCCOCCOCCOCCOCCOCCOCCOCCOCCOCCOCCOCCC(=O)N[C@@H](CCCCNC(=O)c2ccc(-c3c4ccc(=O)cc-4oc4cc(O)ccc34)c(C(=O)O)c2)C(N)=O)NC(=O)[C@H](CC(=O)O)NC(=O)[C@H](CCCNC(=N)N)NC(=O)[C@@H]2CCCN2C(=O)[C@H](C(C)C)NC1=O` [compound 209] ({CH2CO}-AVFVWNYYIVPRDC[PEG12]K(X2)-NH2; thioether N-14), the Kd was 1 to 100 nM.

As for `CC[C@H](C)[C@@H]1NC(=O)[C@H](Cc2ccc(O)cc2)NC(=O)[C@H](Cc2ccc(O)cc2)NC(=O)[C@H](CC(N)=O)NC(=O)[C@H](Cc2c[nH]c3ccccc23)NC(=O)[C@H](C(C)C)NC(=O)[C@H](Cc2ccccc2)NC(=O)[C@H](C(C)C)NC(=O)[C@H](C)NC(=O)CSC[C@@H](C(=O)NCCOCCOCCOCCOCCOCCOCCOCCOCCOCCOCCOCCOCCC(=O)N[C@@H](CCCCNC(=O)c2ccc(-c3c4ccc(=O)cc-4oc4cc(O)ccc34)c(C(=O)O)c2)C(N)=O)NC(=O)[C@H](Cc2c[nH]c3ccccc23)N(C)C(=O)[C@H](CCCNC(=N)N)NC(=O)[C@@H]2CCCN2C(=O)[C@H](C(C)C)NC1=O` [compound 210] ({CH2CO}-AVFVWNYYIVPR[NMeW]C[PEG12]K(X2)-NH2; thioether N-14), the Kd lay within 1 to 100 nM.

Take `CC[C@H](C)[C@@H]1NC(=O)[C@H](Cc2ccc(O)cc2)NC(=O)[C@H](Cc2ccc(O)cc2)NC(=O)[C@H](CC(N)=O)NC(=O)[C@H](Cc2c[nH]c3ccccc23)NC(=O)[C@H](C(C)C)NC(=O)[C@H](Cc2ccccc2)NC(=O)[C@H](C(C)C)NC(=O)[C@H](C)NC(=O)CSC[C@@H](C(=O)NCCOCCOCCOCCOCCOCCOCCOCCOCCOCCOCCOCCOCCC(=O)N[C@@H](CCCCNC(=O)c2ccc(-c3c4ccc(=O)cc-4oc4cc(O)ccc34)c(C(=O)O)c2)C(N)=O)NC(=O)[C@H](CCC(=O)O)NC(=O)[C@H](CCCNC(=N)N)NC(=O)[C@@H]2CCCN2C(=O)[C@H](C(C)C)NC1=O` [compound 211] ({CH2CO}-AVFVWNYYIVPREC[PEG12]K(X2)-NH2; thioether N-14): the Kd is 1 to 100 nM.

As to `CC[C@H](C)[C@@H]1NC(=O)[C@H](Cc2ccc(O)cc2)NC(=O)[C@H](Cc2ccc(O)cc2)NC(=O)[C@H](CC(N)=O)NC(=O)[C@H](Cc2c[nH]c3ccccc23)NC(=O)[C@H](C(C)C)NC(=O)[C@H](Cc2ccccc2)NC(=O)[C@H](C(C)C)NC(=O)[C@H](C)NC(=O)CSC[C@@H](C(=O)NCCOCCOCCOCCOCCOCCOCCOCCOCCOCCOCCOCCOCCC(=O)N[C@@H](CCCCNC(=O)c2ccc(-c3c4ccc(=O)cc-4oc4cc(O)ccc34)c(C(=O)O)c2)C(N)=O)NC(=O)[C@H](CC(N)=O)NC(=O)[C@H](CCCNC(=N)N)NC(=O)[C@@H]2CCCN2C(=O)[C@H](C(C)C)NC1=O` [compound 212] ({CH2CO}-AVFVWNYYIVPRNC[PEG12]K(X2)-NH2; thioether N-14), the dissociation constant Kd fell in the range of 1 to 100 nM.

On to `CC[C@H](C)[C@@H]1NC(=O)[C@H](Cc2ccc(OC)cc2)NC(=O)[C@H](Cc2ccc(O)cc2)NC(=O)[C@H](CC(N)=O)NC(=O)[C@H](Cc2c[nH]c3ccccc23)N(C)C(=O)[C@H](C(C)C)NC(=O)[C@H](Cc2cccc(Cl)c2)N(C)C(=O)[C@H](C(C)C)NC(=O)[C@H](C)N(C)C(=O)CSC[C@@H](C(N)=O)NC(=O)[C@H](Cc2ccc(O)cc2)N(C)C(=O)[C@H](Cc2ccccc2)NC(=O)[C@H](CCCNC(=N)N)NC(=O)[C@H](CCCCN)NC(=O)[C@H]([C@@H](C)CC)NC1=O` [compound 213], for which the dissociation constant (Kd) was in the range of 1 to 100 nM.

In the case of `CC[C@H](C)[C@@H]1NC(=O)[C@H](Cc2ccc(OC)cc2)NC(=O)[C@H](Cc2ccc(O)cc2)NC(=O)[C@H](CC(N)=O)NC(=O)[C@H](Cc2c[nH]c3ccccc23)N(C)C(=O)[C@H](C(C)C)NC(=O)[C@H](Cc2cccc(Cl)c2)N(C)C(=O)[C@H](C(C)C)NC(=O)[C@H](C)N(C)C(=O)CSC[C@@H](C(N)=O)NC(=O)[C@H](Cc2ccc(O)cc2)N(C)C(=O)[C@H](Cc2ccccc2)NC(=O)[C@H](CCCNC(=N)N)NC(=O)[C@H](CCCNC(=N)N)NC(=O)[C@H]([C@@H](C)CC)NC1=O` [compound 214], the dissociation constant (Kd) fell in the range of 1 to 100 nM.

For the compound `CC[C@H](C)[C@@H]1NC(=O)[C@H](Cc2ccc(OC)cc2)NC(=O)[C@H](Cc2ccc(O)cc2)NC(=O)[C@H](CC(N)=O)NC(=O)[C@H](Cc2c[nH]c3ccccc23)N(C)C(=O)[C@H](C(C)C)NC(=O)[C@H](Cc2cccc(Cl)c2)N(C)C(=O)[C@H](C(C)C)NC(=O)[C@H](C)N(C)C(=O)CSC[C@@H](C(N)=O)NC(=O)[C@H](Cc2ccc(O)cc2)N(C)C(=O)[C@H](Cc2ccccc2)NC(=O)[C@@H](CCCNC(=N)N)NC(=O)[C@H](CCCNC(=N)N)NC(=O)[C@H]([C@@H](C)CC)NC1=O` [compound 215], the Kd was in the range of 1 to 100 nM.

With `CC[C@H](C)[C@@H]1NC(=O)[C@H](Cc2ccc(OC)cc2)NC(=O)[C@H](Cc2ccc(O)cc2)NC(=O)[C@H](CC(N)=O)NC(=O)[C@H](Cc2c[nH]c3ccccc23)N(C)C(=O)[C@H](C(C)C)NC(=O)[C@H](Cc2cccc(Cl)c2)N(C)C(=O)[C@H](C(C)C)NC(=O)[C@H](C)N(C)C(=O)CSC[C@@H](C(N)=O)NC(=O)[C@H](Cc2ccc(O)cc2)N(C)C(=O)[C@H](Cc2ccccc2)NC(=O)[C@@H](C)NC(=O)[C@H](CCCNC(=N)N)NC(=O)[C@H]([C@@H](C)CC)NC1=O` [compound 216], the Kd is greater than 1000 nM.

In the case of `CC[C@H](C)[C@@H]1NC(=O)[C@H](Cc2ccc(OC)cc2)NC(=O)[C@H](Cc2ccc(O)cc2)NC(=O)[C@H](CC(N)=O)NC(=O)[C@H](Cc2c[nH]c3ccccc23)N(C)C(=O)[C@H](C(C)C)NC(=O)[C@H](Cc2cccc(Cl)c2)N(C)C(=O)[C@H](C(C)C)NC(=O)[C@H](CCC(=O)O)NC(=O)CSC[C@@H](C(N)=O)NC(=O)[C@H](Cc2ccc(O)cc2)N(C)C(=O)[C@H](Cc2ccccc2)NC(=O)[C@H](CCCNC(=N)N)NC(=O)[C@H](CCCNC(=N)N)NC(=O)[C@H]([C@@H](C)CC)NC1=O` [compound 217], the Kd was in the range of 1 to 100 nM.

Regarding `CC[C@H](C)[C@@H]1NC(=O)[C@H](Cc2ccc(O)cc2)NC(=O)[C@H](Cc2ccc(O)cc2)NC(=O)[C@H](CC(N)=O)NC(=O)[C@H](Cc2c[nH]c3ccccc23)NC(=O)[C@H](C(C)C)NC(=O)[C@H](Cc2ccccc2)NC(=O)[C@H](C(C)C)NC(=O)[C@H](CCC(=O)O)NC(=O)CSC[C@@H](C(=O)NCCOCCOCCOCCOCCOCCOCCOCCOCCOCCOCCOCCOCCC(=O)NN)NC(=O)[C@H](Cc2ccc(O)cc2)N(C)C(=O)[C@H](Cc2ccc(O)cc2)NC(=O)[C@H](CCCNC(=N)N)NC(=O)[C@H](CCCNC(=N)N)NC(=O)[C@H]([C@@H](C)CC)NC1=O` [compound 218], the equilibrium dissociation constant (Kd) is 1 to 100 nM.

As a reminder, the Kd is the constant that tells how readily two partners part at equilibrium.
